One assay has as its system ATDC5 cells. Nature of the assay: Chondrogenesis activity assay in ATDC5 cells (collagen type II induction, immunofluorescence). The class given is cell-based, mouse. The note with it: Mus musculus; for EC50: collagen type II induction in ATDC5 cells, concentration reaching 50% of maximum induction; for Emax: maximum percent induction of collagen type II relative to internal reference compound at 10 μM, ATDC5 cells. An outline of the steps: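 Collagen type II was stained in fixed, permeabilized cells with an Alexa Fluor 488 secondary and measured by high-content fluorescence imaging. ATDC5 cells had 4 days at 37 °C in insulin-supplemented differentiation medium with compound, typically 40 nM–10 μM, 0.1% DMSO. DMSO wells and a 10 μM internal reference compound were used for normalization.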

Assay [1] deals with primary human chondrocyte pellet cultures. Nature of the assay: Chondrogenesis activity assay in primary human chondrocyte pellet cultures (proteoglycan (aggrecan) induction, Blyscan assay). The class given is cell-based. As to conditions: for EC50: 336 h, proteoglycan (aggrecan) induction, primary human chondrocyte pellets, 2 weeks culture; for Emax: Homo sapiens, Chondrocyte, maximum percent proteoglycan (aggrecan) induction relative to the internal reference compound at 10 μM. The procedure:
B) Chondrogenesis Activity Assay in Primary Human Chondrocyte Pellet Cultures
In this assay human articular chondrocytes are harvested by enzymatic digestion from articular cartilage and passaged several times to dedifferentiate the chondrocytes and to propagate the cells. Cells are cultured as cell pellets in the presence of the compounds of the invention over 2 weeks, and the chondrogenic differentiation is quantified by the production of the chondrogenic marker aggrecan (proteoglycan).
In detail, primary chondrocytes were harvested by enzymatic digestion from cartilage of osteoarthritis patients undergoing knee joint replacement surgery, and cultured in vitro. Cells were passaged one or two times and aliquots were cryopreserved. To initiate chondrogenesis experiments, cell aliquots were thawn, cultured in Chondrocyte Growth Medium (CGM, Lonza, #CC-3216) and passaged twice to further propagate and dedifferentiate cells. Pellet cultures were initiated by seeding 2.5×10E5 cells per well into a 96-well deep well plate in 600 μl chondrocyte differentiation medium consisting of Dulbecco's Modified Eagle Medium (DMEM, Invitrogen, #41966), 1×ITS-solution (Insulin/Transferrin/sodium selenite; 100× solution: Invitrogen, #51500056), 5 μg/mL linoleic acid (Sigma, #L1012-1G), 1× nonessential amino acids (100× solution: Invitrogen, #11140); 10 nM Dexamethasone, 2 ng/ml TGF-β1 (transforming growth factor β1) and 10 μg/ml ascorbic acid. Cells were spun to pellets by centrifugation (10 min, 400×g). Test compounds dissolved in DMSO were added to yield increasing compound concentrations, typically from 40 nM to 10 μM, and a final DMSO concentration of 0.1%, and the cell pellets cultured at 37° C., and 5% CO2 for 2 weeks. On each 96-well plate, control wells containing no test compound but the same concentration of DMSO, i.e. untreated cells, were included and used as reference for the determination of the effect of the test compounds on the cells, and wells containing an internal reference compound at a concentration of 10 μM were included and used as positive control and for standardizing the results. Chondrocyte differentiation medium and the compounds were exchanged twice weekly until harvest of the pellets.
For harvest of the pellets, medium was removed and the pellet was homogenized by enzymatic digestion. 100 μl of protease solution containing 0.4 mg/ml papain, 50 mM sodium phosphate, 4 mM EDTA and 0.48 mg/ml L-cysteine was added to the pellet in each well of a 96-well plate, the plate was sealed with a plate sealer foil (SILVERseal, Greiner Bio-One) and incubated for 4 to 6 hours at 65° C. with agitation.
The concentration of proteoglycan (aggrecan) was determined by quantification of the sulfated glycosaminoglycan side chains of aggrecan using the Blyscan assay (Kit from Biocolor). Aliquots of the papain-digest were transferred to 400 μl of Blyscan dye solution and incubated at room temperature for 45 min with agitation (1200 rpm). The mixture was centrifuged at 3760×g for 45 min, the supernatant was discarded, and the stained pellet was redissolved in 400 μl of Blyscan dissociation reagent by rotation until the precipitate completely resolved. Optical density was measured at 656 nm using a Tecan Saphire2 instrument, and the amount of proteoglycan determined against a standard curve with chondroitin-4-sulfate.
Induction of proteoglycan (aggrecan) was calculated for each compound concentration relative to the control (untreated cells, i.e. no test compound added), and an EC50 value (effective concentration 50 (in μM (micromollliter)), i.e. the compound concentration at which the effect of the compound on proteoglycan (aggrecan) induction reaches 50% of the maximum induction) was calculated using a sigmoidal signal fit procedure. […]

Broadly, the EC50 is the concentration that produces a half-maximal response. Higher therefore signals a need for much substance. The term Emax denotes the greatest response seen or fitted, relative to the assay's reference.

The structures appear in SMILES notation. Bounds are passed on as bounds.

Regarding `COc1ccc(-c2cc(C#N)cc3c2[nH]c2c(C)nccc23)cc1` [Example 33, 8-(4-Methoxy-phenyl)-1-methyl-9H-pyrido[3,4-b]indole-6-carbonitrile], in the assay with ATDC5 cells, the EC50 stood at 0.12 µM and the Emax was > 80%. In assay [1], this compound showed an EC50 of 0.83 µM and an Emax of 100 to 200%.
Turning to `Cc1nccc2c1[nH]c1c(-c3ccc(OCc4ccc5ccccc5n4)cc3)cc(Cl)cc12` [Example 34, 6-Chloro-1-methyl-8-[4-(quinolin-2-ylmethoxy)-phenyl]-9H-pyrido[3,4-b]indole], in the assay with ATDC5 cells, the 50% effective concentration (EC50) was > 1.1 µM and the Emax lay within 20 to 50%. For the same compound, in assay [1], the concentration giving a half-maximal response (EC50) is 3.8 µM and the Emax is > 200%.
For `Cc1nccc2c1[nH]c1c(-c3cccc(Oc4ncc(Br)cn4)c3)cc(Cl)cc12` [Example 37, 8-[3-(5-Bromo-pyrimidin-2-yloxy)-phenyl]-6-chloro-1-methyl-9H-pyrido[3,4-b]indole] the same measures were > 3.3 µM, 20 to 50%, 4.3 µM and 100 to 200%.
The like results for `Cc1nccc2c1[nH]c1c(-c3ccc(OCc4nccn4C)cc3)cc(Cl)cc12` [Example 39, 6-Chloro-1-methyl-8-[4-(1-methyl-1H-imidazol-2-ylmethoxy)-phenyl]-9H-pyrido[3,4-b]indole] were, in that order, 0.17 µM, > 80%, 3.7 µM and > 200%.
For `Cc1nccc2c1[nH]c1c(-c3ccc(OCCn4cccn4)cc3)cc(Cl)c(C)c12` [Example 45] the same measures were 0.13 µM, > 80%, 0.22 µM and 40 to 100%.
Take `Clc1cc(-c2ccc(Cl)nc2Cl)c2c(c1)c1ccncc1n2CC1CC1` [Example 46, 6-Chloro-9-cyclopropylmethyl-8-(2,6-dichloro-pyridin-3-yl)-pyrido[3,4-b]indole]: in the assay with ATDC5 cells, the EC50 is 1.4 µM and the Emax is > 80%. Besides, in assay [1], the EC50 was determined as 1 µM and the Emax lay in the range of 100 to 200%.
The like results for `CCn1c2cnccc2c2cc(Cl)cc(-c3ccc(Cl)nc3Cl)c21` [Example 55, 6-Chloro-8-(2,6-dichloro-pyridin-3-yl)-9-ethyl-9H-pyrido[3,4-b]indole] were, in that order, 0.65 µM, > 80%, 0.95 µM and 100 to 200%.
For `Cc1nccc2c1[nH]c1c(-c3cnccc3Cl)cc(Cl)cc12` [Example 97, 6-Chloro-8-(4-chloro-pyridin-3-yl)-1-methyl-9H-pyrido[3,4-b]indole] the same measures were > 1.1 µM, < 20%, 5.1 µM and > 200%.
For `CCn1c2c(-c3cnn(Cc4cccnc4)c3)cc(Cl)cc2c2ccnc(C)c21` [Example 116, 6-Chloro-9-ethyl-1-methyl-8-(1-pyridin-3-ylmethyl-1H-pyrazol-4-yl)-9H-pyrido[3,4-b]indole] the same measures were 0.39 µM, > 80%, 1.3 µM and 100 to 200%.
Take `COC(=O)c1cc2c([nH]c3c(-c4ccc(Cl)nc4Cl)cc(Cl)cc32)c(C)n1` [Example 117, 6-Chloro-8-(2,6-dichloro-pyridin-3-yl)-1-methyl-9H-pyrido[3,4-b]indole-3-carboxylic acid methyl ester]: in the assay with ATDC5 cells, the EC50 was > 10 µM and the Emax is < 20%. For the same compound, in assay [1], it took 27 µM to reach a half-maximal effect (EC50) and the Emax is < 40%.
The like results for `Cc1nccc2c1[nH]c1c(-c3ccc(N4CCN(C)CC4)nc3)cc(Cl)cc12` [Example 118, 6-Chloro-1-methyl-8-[6-(4-methyl-piperazin-1-yl)-pyridin-3-yl]-9H-pyrido[3,4-b]indole] were, in that order, > 1.1 µM, 20 to 50%, 1.3 µM and 100 to 200%.
For the compound `Cc1nccc2c1[nH]c1c(-c3cccnc3OCc3ccccc3)cc(Cl)cc12` [Example 119, 8-(2-Benzyloxy-pyridin-3-yl)-6-chloro-1-methyl-9H-pyrido[3,4-b]indole], in the assay on ATDC5 cells, the EC50 was > 3.3 µM and the Emax is < 20%. Moreover, in assay [1], the EC50 worked out at 21 µM and the Emax lay in the range of 40 to 100%.
Turning to `COc1nc(Cl)ccc1-c1cc(Cl)cc2c1[nH]c1c(C)nccc12` [Example 122, 6-Chloro-8-(6-chloro-2-methoxy-pyridin-3-yl)-1-methyl-9H-pyrido[3,4-b]indole], in the assay on ATDC5 cells, the EC50 is > 3.3 µM and the Emax was in the range of 20 to 50%. Also, in assay [1], the EC50 was found to be 3.6 µM and the Emax was in the range of 100 to 200%.
For `COc1ccc(-c2cc(Cl)cc3c2[nH]c2c(C)nccc23)cc1` [Example 149, 6-Chloro-8-(4-methoxy-phenyl)-1-methyl-9H-pyrido[3,4-b]indole] the same measures were 0.33 µM, > 80%, 1.1 µM and 100 to 200%.
Take `FC(F)(F)Cn1c2cnccc2c2cc(Cl)cc(-c3cnn(-c4c(Cl)cccc4Cl)c3)c21` [Example 167, 6-Chloro-8-[1-(2,6-dichloro-phenyl)-1H-pyrazol-4-yl]-9-(2,2,2-trifluoro-ethyl)-9H-pyrido[3,4-b]indole]: in the assay on ATDC5 cells, the EC50 was > 10 µM and the maximal effect (Emax) lay within 20 to 50%. Also, in assay [1], the EC50 was determined as 13 µM and the Emax was < 40%.
The like results for `Cc1ncc(-c2cc(Cl)cc3c4ccncc4n(CC(F)(F)F)c23)s1` [Example 171, 6-Chloro-8-(2-methyl-thiazol-5-yl)-9-(2,2,2-trifluoro-ethyl)-9H-pyrido[3,4-b]indole] were, in that order, 1.9 µM, > 80%, 4 µM and > 200%.
The like results for `Cc1nccc2c1[nH]c1c(-c3ccc4c(c3)CCCO4)cc(Cl)cc12` [Example 184, 6-Chloro-8-chroman-6-yl-1-methyl-9H-pyrido[3,4-b]indole] were, in that order, 3 µM, 50 to 80%, 1.9 µM and 40 to 100%.
On to `Cc1nccc2c1[nH]c1c(-c3ccc(OCCn4ccnc4)cc3)cc(Cl)cc12` [Example 194, 6-Chloro-8-[4-(2-imidazol-1-yl-ethoxy)-phenyl]-1-methyl-9H-pyrido[3,4-b]indole], for which, in the assay on ATDC5 cells, the EC50 was found to be 0.14 µM and the Emax is > 80%. Also, in assay [1], the EC50 worked out at 0.83 µM and the Emax is 100 to 200%.
On to `Cc1nccc2c1[nH]c1c(-c3ccc4c(c3)OC(C)(C)C4)cc(Cl)cc12` [Example 195, 6-Chloro-8-(2,2-dimethyl-2,3-dihydro-benzofuran-6-yl)-1-methyl-9H-pyrido[3,4-b]indole], for which, in the assay with ATDC5 cells, the EC50 is > 10 µM and the Emax is < 20%. In assay [1], the EC50 worked out at 14 µM and the Emax is < 40%.
With `Cc1nccc2c1[nH]c1c(-c3c[nH]nc3Cc3ccccc3)cc(Cl)cc12` [Example 199, 8-(3-Benzyl-1H-pyrazol-4-yl)-6-chloro-1-methyl-9H-pyrido[3,4-b]indole], in the assay with ATDC5 cells, the EC50 is > 10 µM and the Emax was < 20%. Further, in assay [1], the EC50 amounted to 22 µM and the Emax was < 40%.

These data come from US12275733B2, “Substituted pyrido[3,4-b]indoles for the treatment of cartilage disorders” (Sanofi, priority 2016, dated 2025).
